Measured values: patent US12221422B2, “Compounds and their use for the treatment of alpha1-antitrypsin deficiency” (CENTESSA PHARMACEUTICALS (UK) LIMITED, priority 2018, dated 2025)

Tests used:
human Siiyama A1AT = target: T1, human Siiyama A1AT (Homo sapiens, UniProt P01009, S77F); experiment: A1AT cell secretion assay using HEK-Siiyama cells (ELISA); assay type: cell-based; conditions: 1 or 10 μM, 48 h
T1 construct: expressed in transfected cells; host or cells: HEK-Siiyama (HEK-EBNA cells containing the Siiyama A1AT plasmid)
Experimental: HEK-Siiyama cells, a human embryonic kidney cell line stably transfected with the human Siiyama A1AT gene, were plated into 96 well plates (3.0×10^5 cells/ml with 200 μl of media/well) overnight at 37° C. in a humidified atmosphere containing 5% CO2. Following incubation cells were washed with 200 μl serum-free media three times and media was replaced with serum-free media containing either vehicle, 10 μM suberanilohydroxamic acid (SAHA) or a compound of the invention (at 1 or 10 μM) in replicates of eight for 48 h in a 37° C. incubator in a final volume of 200 μl. […]
(§1) Briefly, a 96 well plate was coated with human A1AT capture antibody overnight at room temperature (1:180 dilution from stock, 100 μl final volume/well). […] After which, 50 μl stop solution (2M H2SO4) was added and optical density (OD) of each well was read at 450 nm with 570 nm blank subtracted from each well using a microplate reader. A 4 parameter logistic curve was constructed using GraphPad Prism 7 and A1AT concentrations were determined in each sample by interpolation from a standard curve and multiplying by the appropriate dilution factor.
The amount of human A1AT secreted from transfected HEK-EBNA cells into the media was measured by ELISA. […]

Pharmacokinetics in rats = assay type: in vivo; conditions: rat, whole blood, Sprague Dawley rats
Experimental: Compounds were administered to Sprague Dawley rats intravenously (2 mg/kg) or orally (10 mg/kg) by gavage. Whole blood diluted with water was prepared from these dosed animals over a time course up to 24 hours post dose to allow blood concentrations of drug to be measured by UPLC-MS/MS.

[1] = Plasma protein binding, mouse plasma (rapid equilibrium dialysis); assay type: in vitro ADME; conditions: 37° C.
Experimental: (§2) The extent to which compounds of the invention bound to plasma proteins such as albumin and alpha-1 acid glycoprotein within human, rat or mouse plasma was determined by rapid equilibrium dialysis. Compounds were incubated at 5 μM for 4 hours at 37° C. Plasma protein binding for N,N-dimethyl-4-((6-oxopyrimidin-1(6H)-yl)methyl)benzamide in mouse plasma was 37.3%, in rat plasma was 14.8% and in human plasma was 30.6%.

[2] = Plasma protein binding, rat plasma (rapid equilibrium dialysis); assay type: in vitro ADME; conditions: 37° C.
Experimental: as §2

[3] = Plasma protein binding, human plasma (rapid equilibrium dialysis); assay type: in vitro ADME; conditions: 37° C.
Experimental: as §2

[4] = target: cardiac potassium (hERG) channels (Homo sapiens, UniProt Q12809); experiment: hERG channel inhibition, Patchliner automated patch clamp; assay type: cell-based; conditions: automated patch clamp, maximum test concentration 100 μM
Experimental: (§3) Compounds of the invention were tested for inhibition of cardiac potassium (hERG) channels using the Patchliner automated patch clamp. 6-Point concentration-response curves were generated using half-log serial dilutions from a maximum final test concentration of 100 μM. IC50 values were obtained from a 4-parameter logistic fit of the concentration-response data. […] Reference compound values were consistent with those presented in the literature (Elkins et al., 2013 J. Pharm. Tox. Meth. 68:11-122).

hERG = hERG (Homo sapiens, UniProt Q12809); experiment: as above; assay type: cell-based; conditions: human; at 100 μM
Experimental: as §3

[5] = test system: panel of enzymes, ion channels and receptors; experiment: DiscoverX Safety47 panel; conditions: at 10 μM
Experimental: Compounds of the invention were tested against the DiscoverX Safety47™ panel. […] No target was inhibited by more than 25% at this concentration.

human Z A1AT = human Z A1AT (Homo sapiens, UniProt P01009, E366K); experiment: A1AT cell secretion assay using HEK-Z cells (ELISA); assay type: cell-based; set-up: expressed in transfected cells; host or cells: HEK-Z (HEK-EBNA cells containing the Z A1AT plasmid); conditions: HEK-Z cells, 10, 33, 100 and 333 nM, 48 h, cell supernatant
Experimental: HEK-Z cells, a human embryonic kidney cell line stably transfected with the human Z A1AT gene, were plated into 96 well plates (3.0×10^5 cells/ml with 200 μl of media/well) overnight at 37° C. in a humidified atmosphere containing 5% CO2. Following incubation cells were washed with 200 μl serum-free media three times and media was replaced with treatments in quadruplicate using serum-free media containing either vehicle, 10 μM suberanilohydroxamic acid (SAHA), N,N-dimethyl-4-((6-oxopyrimidin-1(6H)-yl)methyl)benzamide (at concentrations of 10, 33, 100 and 333 nM), N,N-(bis-methyl-d3)-4-((6-oxopyrimidin-1(6H)-yl)methyl)benzamide (at concentrations of 10, 33, 100 and 333 nM) or N-methyl-4-((6-oxopyrimidin-1(6H)-yl)methyl)benzamide (at concentrations of 10, 33, 100 and 333 nM) for 48 h in a 37° C. incubator in a final volume of 200 μl. At the end of the incubation step the supernatants were removed from the wells, centrifuged at 1000×g at 4° C. for 10 min and were assayed for human A1AT levels by ELISA (Human Serpin A1/α1-antitrypsin duo set ELISA, R& D Systems, DY1268) per manufacturer's instructions.
as §1, with “volume/well). The capture antibody was then removed and wells washed three times with 300 μl wash buffer (0.05% Tween 20 in PBS) and then 200 μl reagent diluent ([…]) was incubated in each well for 1 h at room temperature.” for “volume/well).”
The amount of A1AT secreted from transfected HEK-EBNA cells into the media was measured by ELISA. […]

hERG, sequence (Q12809 whole entry): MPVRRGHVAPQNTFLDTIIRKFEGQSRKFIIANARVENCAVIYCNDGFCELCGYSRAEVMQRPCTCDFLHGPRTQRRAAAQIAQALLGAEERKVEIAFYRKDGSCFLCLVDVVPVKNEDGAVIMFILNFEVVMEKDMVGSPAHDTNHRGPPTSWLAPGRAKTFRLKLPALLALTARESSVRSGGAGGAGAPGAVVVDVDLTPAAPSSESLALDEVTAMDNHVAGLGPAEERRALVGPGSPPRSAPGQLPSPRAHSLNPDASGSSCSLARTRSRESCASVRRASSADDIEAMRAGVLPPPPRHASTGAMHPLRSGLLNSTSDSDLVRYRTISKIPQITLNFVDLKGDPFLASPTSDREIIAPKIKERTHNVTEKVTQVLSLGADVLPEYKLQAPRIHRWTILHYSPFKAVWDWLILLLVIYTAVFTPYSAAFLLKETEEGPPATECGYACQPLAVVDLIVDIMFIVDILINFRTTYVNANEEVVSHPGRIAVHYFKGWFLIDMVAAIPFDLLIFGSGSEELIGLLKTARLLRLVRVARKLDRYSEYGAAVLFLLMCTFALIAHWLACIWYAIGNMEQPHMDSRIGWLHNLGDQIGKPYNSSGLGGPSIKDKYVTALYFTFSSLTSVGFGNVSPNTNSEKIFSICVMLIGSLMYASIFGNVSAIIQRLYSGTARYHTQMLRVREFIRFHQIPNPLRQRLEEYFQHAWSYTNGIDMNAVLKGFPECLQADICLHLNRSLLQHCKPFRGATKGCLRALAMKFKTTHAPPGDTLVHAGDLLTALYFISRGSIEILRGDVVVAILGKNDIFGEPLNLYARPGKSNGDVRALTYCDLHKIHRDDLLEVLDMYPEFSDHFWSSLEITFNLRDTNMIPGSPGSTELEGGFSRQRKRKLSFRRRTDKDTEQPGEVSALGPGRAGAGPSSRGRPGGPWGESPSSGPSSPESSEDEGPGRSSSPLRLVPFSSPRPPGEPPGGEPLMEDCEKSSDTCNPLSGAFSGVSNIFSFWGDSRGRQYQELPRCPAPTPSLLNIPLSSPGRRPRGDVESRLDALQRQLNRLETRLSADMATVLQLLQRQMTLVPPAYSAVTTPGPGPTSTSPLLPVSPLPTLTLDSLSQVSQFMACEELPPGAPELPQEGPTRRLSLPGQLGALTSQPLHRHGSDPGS
cardiac potassium (hERG) channels, sequence (Q12809 whole entry): as above
T1 sequence (P01009 25-418 S77F): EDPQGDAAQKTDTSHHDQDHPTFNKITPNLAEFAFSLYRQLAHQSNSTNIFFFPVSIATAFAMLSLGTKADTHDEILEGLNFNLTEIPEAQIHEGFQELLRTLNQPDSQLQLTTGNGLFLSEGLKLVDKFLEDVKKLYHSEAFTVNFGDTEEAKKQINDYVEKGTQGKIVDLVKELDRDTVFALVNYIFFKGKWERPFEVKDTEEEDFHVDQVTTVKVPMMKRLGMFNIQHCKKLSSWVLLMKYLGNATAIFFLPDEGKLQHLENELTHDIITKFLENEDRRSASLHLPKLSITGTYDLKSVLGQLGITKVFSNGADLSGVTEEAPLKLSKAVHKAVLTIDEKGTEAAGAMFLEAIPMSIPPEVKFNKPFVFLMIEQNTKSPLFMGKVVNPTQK
human Z A1AT, sequence (P01009 25-418 E366K): as the sequence (P01009 25-418 S77F) above, with F53S, E342K counted along it

For `CN(C)C(=O)c1ccc(Cn2cnccc2=O)cc1` [N,N-dimethyl-4-((6-oxopyrimidin-1(6H)-yl)methyl)benzamide], the “secretion of Siiyama A1AT as measured by ELISA” value (human Siiyama A1AT) was “does not stimulate secretion of Siiyama A1AT”, the half-life (Pharmacokinetics in rats; iv 2 mg/kg or oral 10 mg/kg, read-out: Half-life in blood (t1/2)) was 55 min and the clearance (Pharmacokinetics in rats; iv 2 mg/kg or oral 10 mg/kg, read-out: Observed clearance) was 10.6 mL/min/kg. For the same compound, the Vd (Pharmacokinetics in rats; iv 2 mg/kg or oral 10 mg/kg, read-out: Volume of distribution (Vz)) was 0.84 L/kg, the bioavailability (Pharmacokinetics in rats; oral 10 mg/kg vs iv 2 mg/kg, read-out: Oral Bioavailability (F)) was 104% and the Cmax (Pharmacokinetics in rats; oral 10 mg/kg, blood) was 5330 ng/mL. For the same compound, the AUC(0-inf) (Pharmacokinetics in rats; oral 10 mg/kg, blood, read-out: Oral AUCINF) was 16500 ng·h/mL, the fraction unbound at 4 h, 5 μM [1] was 0.627 and the fraction unbound at 4 h, 5 μM [2] was 0.852. The fraction unbound at 4 h, 5 μM [3] was 0.694, the IC50 [4] was over 100 µM and the inhibition at 100 µM (hERG) was 7%. For the same compound, the “inhibition of any target of the Safety47 panel” value [5] was at most 25% and the “secretion of Z A1AT as measured by ELISA” value (human Z A1AT) was “stimulates secretion of Z A1AT in a dose dependent manner”.
